These results are taken from patent publication US20180055032A1, “ODORS FOR PSYLLID TRAPPING, REPELLING AND CONTROL” (The Regents of the University of California, priority 2011, published 2018).

Common to all, as to type: cell-based, Diaphorina citri
Common to all, as to settings: Table 1; odor diluted to 1%, 50 μL in cartridge

The test system of assay [1] is neuron 4B (rhinarial plate on flagellomere 4).
In assay [2] the test system is neuron 2A (rhinarial plate on flagellomere 2). As to the kind of experiment: single-sensillum electrophysiology, odor response of neuron 2A. Further: key: 0, no response; +, >50 spikes/second; ++, >100 spikes/second; +++, >150 spikes/second.
In assay [3] the test system is neuron 2B (rhinarial plate on flagellomere 2). As to the kind of experiment: single-sensillum electrophysiology, odor response of neuron 2B.
The test system of assay [4] is neuron 7A (rhinarial plate on flagellomere 7). Nature of the assay: single-sensillum electrophysiology, odor response of neuron 7A. Further: key: 0, no response; +, >50 spikes/second; ++, >100 spikes/second; +++, >150 spikes/second.
In assay [5] the test system is neuron 6A (rhinarial plate on flagellomere 6). As to the kind of experiment: single-sensillum electrophysiology, odor response of neuron 6A.
Assay [6] has as its system neuron 2C (rhinarial plate on flagellomere 2). As to the kind of experiment: single-sensillum electrophysiology, odor response of neuron 2C.
For assay [7], the system named is neuron 4A (rhinarial plate on flagellomere 4). Nature of the assay: single-sensillum electrophysiology, odor response of neuron 4A.
Assay [8] concerns neuron 4C (rhinarial plate on flagellomere 4). Nature of the assay: single-sensillum electrophysiology, odor response of neuron 4C.
Assay [9] deals with neuron 7C (rhinarial plate on flagellomere 7). Nature of the assay: single-sensillum electrophysiology, odor response of neuron 7C.
Assay [10] deals with neuron 6C (rhinarial plate on flagellomere 6). Nature of the assay: single-sensillum electrophysiology, odor response of neuron 6C.
Assay [11] deals with neuron 7B (rhinarial plate on flagellomere 7).
Assay [12] has as its system neuron 6B (rhinarial plate on flagellomere 6). Nature of the assay: single-sensillum electrophysiology, odor response of neuron 6B.

On to `C=C/C(C)=C\C/C=C(\C)CCC=C(C)C` [ZE-α-farnesene], for which, in [1], the “odor response (frequency of action potentials during stimulus minus baseline), 4B” value stood at 0. The “odor response (frequency of action potentials during stimulus minus baseline), 2A” value in assay [2] came out at 0. For the same molecule, in [3], the “odor response (frequency of action potentials during stimulus minus baseline), 2B” value stood at 0. In assay [4], the “odor response (frequency of action potentials during stimulus minus baseline), 7A” value is 0. In addition, the “odor response (frequency of action potentials during stimulus minus baseline), 6A” value in [5] stood at 0. The “odor response (frequency of action potentials during stimulus minus baseline), 2C” value in assay [6] is “+ (+, >50 spikes/second)”. Further, the “odor response (frequency of action potentials during stimulus minus baseline), 4A” value in assay [7] is 0. Further, the “odor response (frequency of action potentials during stimulus minus baseline), 4C” value in assay [8] was found to be 0. Also, the “odor response (frequency of action potentials during stimulus minus baseline), 7C” value in [9] turned out to be 0. In addition, the “odor response (frequency of action potentials during stimulus minus baseline), 6C” value in assay [10] turned out to be 0. The “odor response (frequency of action potentials during stimulus minus baseline), 7B” value in assay [11] is given as 0. For the same molecule, the “odor response (frequency of action potentials during stimulus minus baseline), 6B” value in assay [12] amounted to 0.

Consider `CC(=O)c1ccccc1` [acetophenone], for which the “odor response (frequency of action potentials during stimulus minus baseline), 4B” value in assay [1] was “++ (++, >100 spikes/second)”. In assay [2], the “odor response (frequency of action potentials during stimulus minus baseline), 2A” value came to 0. Further, the “odor response (frequency of action potentials during stimulus minus baseline), 2B” value in [3] is on record as 0. The “odor response (frequency of action potentials during stimulus minus baseline), 7A” value in assay [4] was determined as 0. The “odor response (frequency of action potentials during stimulus minus baseline), 6A” value in assay [5] is recorded as 0. Also, the “odor response (frequency of action potentials during stimulus minus baseline), 2C” value in assay [6] is recorded as 0. Also, the “odor response (frequency of action potentials during stimulus minus baseline), 4A” value in assay [7] came out at 0. Also, the “odor response (frequency of action potentials during stimulus minus baseline), 4C” value in assay [8] was found to be 0. Besides, in [9], the “odor response (frequency of action potentials during stimulus minus baseline), 7C” value is “+ (+, >50 spikes/second)”. Further, the “odor response (frequency of action potentials during stimulus minus baseline), 6C” value in assay [10] was determined as 0. Further, the “odor response (frequency of action potentials during stimulus minus baseline), 7B” value in assay [11] is 0. Moreover, the “odor response (frequency of action potentials during stimulus minus baseline), 6B” value in assay [12] is “++ (++, >100 spikes/second)”.

With `C=CCSSCC=C` [allyl disulfide], the “odor response (frequency of action potentials during stimulus minus baseline), 4B” value in assay [1] was “++ (++, >100 spikes/second)”. Moreover, in assay [2], the “odor response (frequency of action potentials during stimulus minus baseline), 2A” value stood at 0. Also, in assay [3], the “odor response (frequency of action potentials during stimulus minus baseline), 2B” value is listed as 0. Further, the “odor response (frequency of action potentials during stimulus minus baseline), 7A” value in assay [4] is 0. In addition, in assay [5], the “odor response (frequency of action potentials during stimulus minus baseline), 6A” value amounted to 0. Moreover, the “odor response (frequency of action potentials during stimulus minus baseline), 2C” value in assay [6] is recorded as 0. The “odor response (frequency of action potentials during stimulus minus baseline), 4A” value in assay [7] is 0. For the same molecule, the “odor response (frequency of action potentials during stimulus minus baseline), 4C” value in assay [8] is 0. The “odor response (frequency of action potentials during stimulus minus baseline), 7C” value in [9] is reported as 0. Besides, in assay [10], the “odor response (frequency of action potentials during stimulus minus baseline), 6C” value is given as 0. For the same molecule, the “odor response (frequency of action potentials during stimulus minus baseline), 7B” value in assay [11] stood at 0. Also, the “odor response (frequency of action potentials during stimulus minus baseline), 6B” value in assay [12] was “+ (+, >50 spikes/second)”.

With `O=Cc1ccccc1` [benzaldehyde], in assay [1], the “odor response (frequency of action potentials during stimulus minus baseline), 4B” value is “+ (+, >50 spikes/second)”. For the same molecule, in assay [2], the “odor response (frequency of action potentials during stimulus minus baseline), 2A” value was found to be 0. For the same molecule, the “odor response (frequency of action potentials during stimulus minus baseline), 2B” value in assay [3] is recorded as 0. For the same molecule, the “odor response (frequency of action potentials during stimulus minus baseline), 7A” value in assay [4] worked out at 0. Further, the “odor response (frequency of action potentials during stimulus minus baseline), 6A” value in assay [5] is reported as 0. In assay [6], the “odor response (frequency of action potentials during stimulus minus baseline), 2C” value is given as “+ (+, >50 spikes/second)”. For the same molecule, in assay [7], the “odor response (frequency of action potentials during stimulus minus baseline), 4A” value is given as 0. Also, in assay [8], the “odor response (frequency of action potentials during stimulus minus baseline), 4C” value was found to be 0. The “odor response (frequency of action potentials during stimulus minus baseline), 7C” value in assay [9] came out at 0. Also, the “odor response (frequency of action potentials during stimulus minus baseline), 6C” value in [10] is 0. Besides, in assay [11], the “odor response (frequency of action potentials during stimulus minus baseline), 7B” value is given as 0. For the same molecule, the “odor response (frequency of action potentials during stimulus minus baseline), 6B” value in assay [12] was found to be 0.

With `CC(C)=CCCC(C)=CC=O` [citral], the “odor response (frequency of action potentials during stimulus minus baseline), 4B” value in [1] stood at 0. Besides, the “odor response (frequency of action potentials during stimulus minus baseline), 2A” value in assay [2] is listed as 0. The “odor response (frequency of action potentials during stimulus minus baseline), 2B” value in assay [3] amounted to 0. Further, in [4], the “odor response (frequency of action potentials during stimulus minus baseline), 7A” value was 0. Also, the “odor response (frequency of action potentials during stimulus minus baseline), 6A” value in assay [5] came to 0. Also, the “odor response (frequency of action potentials during stimulus minus baseline), 2C” value in [6] is on record as “++ (++, >100 spikes/second)”. Moreover, the “odor response (frequency of action potentials during stimulus minus baseline), 4A” value in [7] was determined as 0. For the same molecule, the “odor response (frequency of action potentials during stimulus minus baseline), 4C” value in assay [8] was 0. In addition, in [9], the “odor response (frequency of action potentials during stimulus minus baseline), 7C” value was found to be 0. In assay [10], the “odor response (frequency of action potentials during stimulus minus baseline), 6C” value worked out at 0. Besides, in assay [11], the “odor response (frequency of action potentials during stimulus minus baseline), 7B” value worked out at 0. In assay [12], the “odor response (frequency of action potentials during stimulus minus baseline), 6B” value is given as 0.

Take `CC(C)=CCCC(C)CC=O` (stereo not drawn) [citronellal]: the “odor response (frequency of action potentials during stimulus minus baseline), 4B” value in [1] is given as 0. Moreover, in [2], the “odor response (frequency of action potentials during stimulus minus baseline), 2A” value came out at 0. Also, the “odor response (frequency of action potentials during stimulus minus baseline), 2B” value in assay [3] is 0. For the same molecule, the “odor response (frequency of action potentials during stimulus minus baseline), 7A” value in assay [4] came to 0. Also, the “odor response (frequency of action potentials during stimulus minus baseline), 6A” value in assay [5] is 0. Moreover, in [6], the “odor response (frequency of action potentials during stimulus minus baseline), 2C” value was “+ (+, >50 spikes/second)”. The “odor response (frequency of action potentials during stimulus minus baseline), 4A” value in assay [7] came out at 0. The “odor response (frequency of action potentials during stimulus minus baseline), 4C” value in assay [8] is on record as 0. For the same molecule, the “odor response (frequency of action potentials during stimulus minus baseline), 7C” value in assay [9] came out at 0. The “odor response (frequency of action potentials during stimulus minus baseline), 6C” value in [10] is listed as 0. Moreover, in assay [11], the “odor response (frequency of action potentials during stimulus minus baseline), 7B” value was 0. For the same molecule, the “odor response (frequency of action potentials during stimulus minus baseline), 6B” value in assay [12] is 0.

For the molecule `CCCCCCCCCC=O` [decanal], the “odor response (frequency of action potentials during stimulus minus baseline), 4B” value in assay [1] is “+++ (+++, >150 spikes/second)”. In addition, in assay [2], the “odor response (frequency of action potentials during stimulus minus baseline), 2A” value was 0. Moreover, the “odor response (frequency of action potentials during stimulus minus baseline), 2B” value in assay [3] came to 0. In addition, the “odor response (frequency of action potentials during stimulus minus baseline), 7A” value in [4] amounted to 0. In assay [5], the “odor response (frequency of action potentials during stimulus minus baseline), 6A” value worked out at 0. For the same molecule, the “odor response (frequency of action potentials during stimulus minus baseline), 2C” value in assay [6] is reported as 0. For the same molecule, the “odor response (frequency of action potentials during stimulus minus baseline), 4A” value in [7] is reported as 0. Also, in assay [8], the “odor response (frequency of action potentials during stimulus minus baseline), 4C” value stood at 0. Besides, the “odor response (frequency of action potentials during stimulus minus baseline), 7C” value in assay [9] was “++ (++, >100 spikes/second)”. Moreover, the “odor response (frequency of action potentials during stimulus minus baseline), 6C” value in assay [10] turned out to be 0. Besides, in assay [11], the “odor response (frequency of action potentials during stimulus minus baseline), 7B” value worked out at 0. Further, the “odor response (frequency of action potentials during stimulus minus baseline), 6B” value in assay [12] is “++ (++, >100 spikes/second)”.

With `C=CCSSSCC=C` [diallyl trisulfide], the “odor response (frequency of action potentials during stimulus minus baseline), 4B” value in [1] was “+ (+, >50 spikes/second)”. For the same molecule, the “odor response (frequency of action potentials during stimulus minus baseline), 2A” value in [2] is given as 0. In assay [3], the “odor response (frequency of action potentials during stimulus minus baseline), 2B” value is 0. For the same molecule, the “odor response (frequency of action potentials during stimulus minus baseline), 7A” value in assay [4] was determined as 0. The “odor response (frequency of action potentials during stimulus minus baseline), 6A” value in assay [5] is on record as 0. The “odor response (frequency of action potentials during stimulus minus baseline), 2C” value in assay [6] is 0. In addition, the “odor response (frequency of action potentials during stimulus minus baseline), 4A” value in [7] worked out at 0. The “odor response (frequency of action potentials during stimulus minus baseline), 4C” value in assay [8] was found to be 0. Also, the “odor response (frequency of action potentials during stimulus minus baseline), 7C” value in [9] turned out to be 0. The “odor response (frequency of action potentials during stimulus minus baseline), 6C” value in assay [10] is 0. For the same molecule, the “odor response (frequency of action potentials during stimulus minus baseline), 7B” value in assay [11] is 0. For the same molecule, in [12], the “odor response (frequency of action potentials during stimulus minus baseline), 6B” value is given as “+ (+, >50 spikes/second)”.

Turning to `CCCSSCCC` [dipropyl disulfide], the “odor response (frequency of action potentials during stimulus minus baseline), 4B” value in [1] is “+ (+, >50 spikes/second)”. Besides, the “odor response (frequency of action potentials during stimulus minus baseline), 2A” value in assay [2] was 0. In addition, in [3], the “odor response (frequency of action potentials during stimulus minus baseline), 2B” value is listed as 0. Further, in assay [4], the “odor response (frequency of action potentials during stimulus minus baseline), 7A” value is given as 0. Moreover, in assay [5], the “odor response (frequency of action potentials during stimulus minus baseline), 6A” value is listed as 0. Moreover, the “odor response (frequency of action potentials during stimulus minus baseline), 2C” value in [6] was 0. Also, in [7], the “odor response (frequency of action potentials during stimulus minus baseline), 4A” value is given as 0. Also, the “odor response (frequency of action potentials during stimulus minus baseline), 4C” value in [8] is recorded as 0. Also, the “odor response (frequency of action potentials during stimulus minus baseline), 7C” value in [9] is recorded as 0. For the same molecule, the “odor response (frequency of action potentials during stimulus minus baseline), 6C” value in assay [10] turned out to be 0. The “odor response (frequency of action potentials during stimulus minus baseline), 7B” value in assay [11] is given as 0. Further, the “odor response (frequency of action potentials during stimulus minus baseline), 6B” value in [12] is on record as “++ (++, >100 spikes/second)”.
